Experimental data published in paper PMC6407917, “Identification of GSK3186899/DDD853651 as a Preclinical Development Candidate for the Treatment of Visceral Leishmaniasis” (Journal of Medicinal Chemistry, 2018).

Tests used:
Test in all cases: biochemical
Set-up in all cases: species or system HEK293/K-562/placenta mixed human extract; Kinobeads chemoproteomic competition binding, quantified by TMT LC-MS/MS, dose response up to 20 uM
CSNK1E = CSNK1E (Homo sapiens, UniProt P49674)
PRKDC = PRKDC (Homo sapiens, UniProt P78527)
TYK2 = TYK2 (Homo sapiens, UniProt P29597)
MAP2K4 = MAP2K4 (Homo sapiens, UniProt P45985)
MAP3K11 = MAP3K11 (Homo sapiens, UniProt Q16584)
LIMK2 = LIMK2 (Homo sapiens, UniProt P53671)
MAP4K4 = MAP4K4 (Homo sapiens, UniProt O95819)
DDR2 = DDR2 (Homo sapiens, UniProt Q16832)
JAK2 = JAK2 (Homo sapiens, UniProt O60674)
SNRK = SNRK (Homo sapiens, UniProt Q9NRH2)
DAPK1 = DAPK1 (Homo sapiens, UniProt P53355)
MET = MET (Homo sapiens, UniProt P08581)
ABL2 = ABL2 (Homo sapiens, UniProt P42684)
MAP3K5 = MAP3K5 (Homo sapiens, UniProt Q99683)
NLK = NLK (Homo sapiens, UniProt Q9UBE8)
WEE1 = WEE1 (Homo sapiens, UniProt P30291)
CAMKK2 = CAMKK2 (Homo sapiens, UniProt Q96RR4)
CSNK2B = CSNK2B (Homo sapiens, UniProt P67870)
LATS1 = LATS1 (Homo sapiens, UniProt O95835)
CDC7 = CDC7 (Homo sapiens, UniProt O00311)
AURKA = AURKA (Homo sapiens, UniProt O14965)
Chain of AURKA (O14965 whole entry): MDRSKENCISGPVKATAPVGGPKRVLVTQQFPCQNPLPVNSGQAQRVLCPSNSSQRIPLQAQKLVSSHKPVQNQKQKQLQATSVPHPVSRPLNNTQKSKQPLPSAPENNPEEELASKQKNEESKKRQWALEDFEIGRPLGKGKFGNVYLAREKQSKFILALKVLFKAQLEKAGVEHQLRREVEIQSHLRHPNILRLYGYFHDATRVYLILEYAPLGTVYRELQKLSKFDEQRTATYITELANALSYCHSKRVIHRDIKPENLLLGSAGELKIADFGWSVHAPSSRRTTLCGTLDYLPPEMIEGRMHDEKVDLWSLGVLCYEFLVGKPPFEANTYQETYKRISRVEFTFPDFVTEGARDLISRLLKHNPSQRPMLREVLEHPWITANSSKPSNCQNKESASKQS

Chain of WEE1 (P30291 whole entry): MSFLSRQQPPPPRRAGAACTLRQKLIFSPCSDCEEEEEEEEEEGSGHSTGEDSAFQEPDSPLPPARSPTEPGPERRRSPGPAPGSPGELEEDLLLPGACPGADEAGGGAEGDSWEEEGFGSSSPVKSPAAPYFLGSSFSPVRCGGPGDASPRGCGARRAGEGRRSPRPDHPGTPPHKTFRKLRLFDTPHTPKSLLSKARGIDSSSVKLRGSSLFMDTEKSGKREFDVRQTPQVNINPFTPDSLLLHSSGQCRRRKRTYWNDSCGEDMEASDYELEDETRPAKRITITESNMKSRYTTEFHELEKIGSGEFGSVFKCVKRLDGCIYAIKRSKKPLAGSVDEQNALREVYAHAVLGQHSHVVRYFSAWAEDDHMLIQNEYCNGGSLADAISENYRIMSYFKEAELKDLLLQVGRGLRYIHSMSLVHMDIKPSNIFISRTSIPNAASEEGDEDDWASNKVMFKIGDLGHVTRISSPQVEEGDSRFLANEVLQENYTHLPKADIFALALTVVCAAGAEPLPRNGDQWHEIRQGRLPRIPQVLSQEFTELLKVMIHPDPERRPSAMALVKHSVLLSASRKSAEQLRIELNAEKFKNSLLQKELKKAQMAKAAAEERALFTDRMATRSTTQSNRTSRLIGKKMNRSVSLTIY
Chain of MET (P08581 whole entry): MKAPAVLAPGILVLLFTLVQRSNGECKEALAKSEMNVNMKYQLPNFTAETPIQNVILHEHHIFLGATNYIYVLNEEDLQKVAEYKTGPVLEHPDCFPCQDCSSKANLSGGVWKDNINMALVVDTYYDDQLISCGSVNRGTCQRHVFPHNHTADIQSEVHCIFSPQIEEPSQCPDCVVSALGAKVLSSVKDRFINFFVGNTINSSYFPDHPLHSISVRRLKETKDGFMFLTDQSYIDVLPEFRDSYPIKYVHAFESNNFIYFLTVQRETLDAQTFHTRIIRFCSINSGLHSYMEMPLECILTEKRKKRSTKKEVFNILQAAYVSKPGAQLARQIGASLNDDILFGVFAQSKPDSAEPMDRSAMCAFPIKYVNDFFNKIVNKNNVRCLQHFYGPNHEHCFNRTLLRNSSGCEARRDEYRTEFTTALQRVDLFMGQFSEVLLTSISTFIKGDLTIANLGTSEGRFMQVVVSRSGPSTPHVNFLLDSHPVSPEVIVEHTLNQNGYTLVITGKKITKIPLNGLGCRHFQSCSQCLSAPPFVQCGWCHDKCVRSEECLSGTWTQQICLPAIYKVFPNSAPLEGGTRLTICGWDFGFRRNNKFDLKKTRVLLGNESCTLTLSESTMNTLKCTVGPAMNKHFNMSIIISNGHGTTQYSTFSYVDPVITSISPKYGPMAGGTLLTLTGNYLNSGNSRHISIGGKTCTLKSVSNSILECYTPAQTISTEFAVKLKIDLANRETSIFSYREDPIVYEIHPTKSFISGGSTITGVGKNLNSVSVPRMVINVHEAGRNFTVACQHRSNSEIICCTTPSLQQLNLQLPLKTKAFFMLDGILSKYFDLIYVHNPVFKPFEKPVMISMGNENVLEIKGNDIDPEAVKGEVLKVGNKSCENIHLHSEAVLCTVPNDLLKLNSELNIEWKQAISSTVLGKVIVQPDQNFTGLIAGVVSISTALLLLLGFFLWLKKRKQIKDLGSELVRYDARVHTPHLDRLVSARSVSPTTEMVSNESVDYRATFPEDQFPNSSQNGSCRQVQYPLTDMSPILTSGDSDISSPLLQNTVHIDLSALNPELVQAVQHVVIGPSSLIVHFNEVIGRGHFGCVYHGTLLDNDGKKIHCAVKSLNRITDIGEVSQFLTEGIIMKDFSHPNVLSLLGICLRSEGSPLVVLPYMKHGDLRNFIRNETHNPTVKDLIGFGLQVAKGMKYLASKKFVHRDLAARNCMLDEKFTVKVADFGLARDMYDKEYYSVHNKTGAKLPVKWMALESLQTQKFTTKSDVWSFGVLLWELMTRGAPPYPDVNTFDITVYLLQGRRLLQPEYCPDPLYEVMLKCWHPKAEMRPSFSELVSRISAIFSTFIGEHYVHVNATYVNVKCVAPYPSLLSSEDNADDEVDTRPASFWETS
Chain of SNRK (Q9NRH2 whole entry): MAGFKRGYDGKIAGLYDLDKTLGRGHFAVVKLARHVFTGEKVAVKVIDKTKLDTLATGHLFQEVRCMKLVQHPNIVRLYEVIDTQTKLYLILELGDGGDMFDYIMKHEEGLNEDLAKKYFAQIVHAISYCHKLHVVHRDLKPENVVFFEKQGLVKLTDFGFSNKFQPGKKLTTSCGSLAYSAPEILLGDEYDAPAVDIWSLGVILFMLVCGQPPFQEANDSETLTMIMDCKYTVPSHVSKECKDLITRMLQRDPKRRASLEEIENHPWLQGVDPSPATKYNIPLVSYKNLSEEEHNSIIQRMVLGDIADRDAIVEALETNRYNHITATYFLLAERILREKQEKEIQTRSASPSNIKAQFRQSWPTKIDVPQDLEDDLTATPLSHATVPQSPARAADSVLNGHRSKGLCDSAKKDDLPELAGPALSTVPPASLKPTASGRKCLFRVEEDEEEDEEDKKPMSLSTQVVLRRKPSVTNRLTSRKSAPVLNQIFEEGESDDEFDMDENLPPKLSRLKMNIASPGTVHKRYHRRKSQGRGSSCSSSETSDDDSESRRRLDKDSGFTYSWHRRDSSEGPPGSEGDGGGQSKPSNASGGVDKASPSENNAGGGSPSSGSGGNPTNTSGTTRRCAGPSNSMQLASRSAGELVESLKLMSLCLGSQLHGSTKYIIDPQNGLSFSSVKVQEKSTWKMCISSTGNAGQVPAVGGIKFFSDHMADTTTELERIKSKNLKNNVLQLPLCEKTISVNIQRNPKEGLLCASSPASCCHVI
Chain of MAP4K4 (O95819 whole entry): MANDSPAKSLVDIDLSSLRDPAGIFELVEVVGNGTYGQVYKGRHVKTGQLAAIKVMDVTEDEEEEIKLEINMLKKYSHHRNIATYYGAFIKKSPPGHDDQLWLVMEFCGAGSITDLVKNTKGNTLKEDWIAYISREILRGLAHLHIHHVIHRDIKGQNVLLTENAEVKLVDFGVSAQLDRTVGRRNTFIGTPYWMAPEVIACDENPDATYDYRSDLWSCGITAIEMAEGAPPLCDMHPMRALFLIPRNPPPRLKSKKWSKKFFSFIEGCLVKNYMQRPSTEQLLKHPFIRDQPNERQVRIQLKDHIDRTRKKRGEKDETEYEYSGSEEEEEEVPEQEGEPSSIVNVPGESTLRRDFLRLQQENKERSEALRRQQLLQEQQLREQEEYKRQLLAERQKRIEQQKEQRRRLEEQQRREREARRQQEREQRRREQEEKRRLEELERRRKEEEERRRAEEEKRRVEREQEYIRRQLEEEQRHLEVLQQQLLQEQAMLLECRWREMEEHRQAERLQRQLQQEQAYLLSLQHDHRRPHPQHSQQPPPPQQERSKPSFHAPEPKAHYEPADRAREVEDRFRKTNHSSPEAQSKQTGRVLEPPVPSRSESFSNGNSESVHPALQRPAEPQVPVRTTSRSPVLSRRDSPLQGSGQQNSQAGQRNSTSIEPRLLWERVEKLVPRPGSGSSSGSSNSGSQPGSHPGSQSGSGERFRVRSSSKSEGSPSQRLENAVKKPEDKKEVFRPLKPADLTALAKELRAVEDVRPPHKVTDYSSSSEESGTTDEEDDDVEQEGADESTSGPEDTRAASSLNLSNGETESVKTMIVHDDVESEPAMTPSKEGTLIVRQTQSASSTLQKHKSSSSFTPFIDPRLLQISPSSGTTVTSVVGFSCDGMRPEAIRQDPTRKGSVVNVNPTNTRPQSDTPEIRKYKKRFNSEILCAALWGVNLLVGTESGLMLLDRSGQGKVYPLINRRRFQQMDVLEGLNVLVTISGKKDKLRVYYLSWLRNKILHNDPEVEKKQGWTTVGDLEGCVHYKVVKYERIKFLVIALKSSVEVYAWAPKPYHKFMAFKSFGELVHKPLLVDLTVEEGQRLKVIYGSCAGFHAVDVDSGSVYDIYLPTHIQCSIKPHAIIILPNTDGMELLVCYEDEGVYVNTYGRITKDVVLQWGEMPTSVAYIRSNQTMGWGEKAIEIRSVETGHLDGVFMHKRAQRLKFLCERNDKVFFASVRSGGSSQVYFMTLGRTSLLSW
Chain of NLK (Q9UBE8 whole entry): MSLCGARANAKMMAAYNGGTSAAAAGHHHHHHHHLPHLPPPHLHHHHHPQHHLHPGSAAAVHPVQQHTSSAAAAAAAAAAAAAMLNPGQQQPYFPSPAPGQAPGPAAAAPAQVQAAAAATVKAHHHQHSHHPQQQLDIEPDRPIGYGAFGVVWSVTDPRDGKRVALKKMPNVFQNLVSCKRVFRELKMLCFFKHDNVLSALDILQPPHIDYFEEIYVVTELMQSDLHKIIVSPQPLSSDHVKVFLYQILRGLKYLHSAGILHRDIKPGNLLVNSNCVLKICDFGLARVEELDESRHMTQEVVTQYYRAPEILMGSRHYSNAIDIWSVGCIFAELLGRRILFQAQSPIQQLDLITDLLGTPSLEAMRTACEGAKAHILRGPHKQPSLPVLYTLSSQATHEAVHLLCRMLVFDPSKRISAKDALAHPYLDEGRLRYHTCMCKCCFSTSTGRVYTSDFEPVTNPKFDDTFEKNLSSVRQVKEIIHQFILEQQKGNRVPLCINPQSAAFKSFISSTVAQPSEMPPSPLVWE

IC50 (CSNK1E): 7.7 µM
IC50 (PRKDC): ≥ 20 µM
IC50 (TYK2): ≥ 20 µM
IC50 (MAP2K4): ≥ 20 µM
IC50 (MAP3K11): ≥ 20 µM
IC50 (LIMK2): ≥ 20 µM
IC50 (MAP4K4): ≥ 20 µM
IC50 (DDR2): ≥ 20 µM
IC50 (JAK2): ≥ 20 µM
IC50 (SNRK): ≥ 20 µM
IC50 (DAPK1): ≥ 20 µM
IC50 (MET): ≥ 20 µM
IC50 (ABL2): ≥ 20 µM
IC50 (MAP3K5): ≥ 20 µM
IC50 (NLK): 3.4 µM
IC50 (WEE1): ≥ 20 µM
IC50 (CAMKK2): 8.6 µM
IC50 (CSNK2B): ≥ 20 µM
IC50 (LATS1): ≥ 20 µM
IC50 (CDC7): ≥ 20 µM
IC50 (AURKA): ≥ 20 µM
Structure (SMILES): COc1ccccc1-c1n[nH]c2nc(N[C@H]3CC[C@H](NS(=O)(=O)CCC(F)(F)F)CC3)nc(OC)c12 [compound 31, 3,3,3-Trifluoro-N-(trans-4-((4-methoxy-3-(2-methoxyphenyl)-1H-pyrazolo[3,4-d]pyrimidin-6-yl)amino)cyclohexyl)propane-1-sulfonamide]
